Experimental data: patent US8680139B2 (Progenra, priority 2009, dated 2014)

Molecular target: T1, USP7 (Homo sapiens, UniProt Q93009)
T1 construct: full length human USP7 protein; made in house
Assay: USP7, Ub-PLA2 assay
Assay type: biochemical
Details: Ub-PLA2 / NBD C6-HPC fluorescence, 30 minute preincubation; read-out: EC50 for inhibition of USP7
Method in brief: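 Compounds tested against USP7 with DMSO vehicle control and NEM-treated wells as background. Fluorescence (RFU) read-out; % inhibition normalized per plate to mean DMSO and NEM controls.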

T1 sequence (Q93009 whole entry): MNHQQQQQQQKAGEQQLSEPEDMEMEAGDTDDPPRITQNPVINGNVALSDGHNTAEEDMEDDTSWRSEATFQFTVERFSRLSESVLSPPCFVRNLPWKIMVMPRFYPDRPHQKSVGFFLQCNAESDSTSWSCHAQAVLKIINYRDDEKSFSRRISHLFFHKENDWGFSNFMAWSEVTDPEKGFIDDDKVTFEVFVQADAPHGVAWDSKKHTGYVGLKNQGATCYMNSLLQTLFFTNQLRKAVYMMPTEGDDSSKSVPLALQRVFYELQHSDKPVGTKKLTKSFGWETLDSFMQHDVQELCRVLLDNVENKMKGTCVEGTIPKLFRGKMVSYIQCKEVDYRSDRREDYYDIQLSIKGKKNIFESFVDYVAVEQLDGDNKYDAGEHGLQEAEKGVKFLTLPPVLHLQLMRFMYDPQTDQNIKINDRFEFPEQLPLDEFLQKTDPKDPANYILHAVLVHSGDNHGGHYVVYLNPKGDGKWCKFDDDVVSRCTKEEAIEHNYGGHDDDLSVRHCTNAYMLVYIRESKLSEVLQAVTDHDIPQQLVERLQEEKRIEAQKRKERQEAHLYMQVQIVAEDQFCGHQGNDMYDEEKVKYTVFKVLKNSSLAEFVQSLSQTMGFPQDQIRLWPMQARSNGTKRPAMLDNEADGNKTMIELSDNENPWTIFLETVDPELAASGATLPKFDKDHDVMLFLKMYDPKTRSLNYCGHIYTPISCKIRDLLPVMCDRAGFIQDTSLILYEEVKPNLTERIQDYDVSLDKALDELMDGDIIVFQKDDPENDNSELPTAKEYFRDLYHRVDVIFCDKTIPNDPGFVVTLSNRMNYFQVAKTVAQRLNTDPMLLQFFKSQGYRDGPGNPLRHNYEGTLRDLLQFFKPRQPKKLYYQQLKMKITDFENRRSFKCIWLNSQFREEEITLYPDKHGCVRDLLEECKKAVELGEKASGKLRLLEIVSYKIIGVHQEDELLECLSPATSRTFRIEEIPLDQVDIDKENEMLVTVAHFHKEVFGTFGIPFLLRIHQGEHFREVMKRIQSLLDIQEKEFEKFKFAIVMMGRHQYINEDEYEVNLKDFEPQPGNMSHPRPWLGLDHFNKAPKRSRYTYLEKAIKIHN

COC(=O)c1cc([N+](=O)[O-])c(Sc2nc3nc(C)cc(C)n3n2)s1 [Example 266, Methyl 5-((5,7-dimethyl-[1,2,4]triazolo[1,5-a]pyrimidin-2-yl)thio)-4-nitrothiophene-2-carboxylate]
EC50: > 10000 nM

CC(=O)c1cc([N+](=O)[O-])c(Sc2cccc3ccccc23)s1 [Example 5, 1-[5-(Naphth-1-ylsulfanyl)-4-nitro-2-thienyl]ethanone]
EC50: > 10000 nM

CN(C)C1CCN(CCCNC(=O)c2cc([N+](=O)[O-])c(Sc3c(Cl)cncc3Cl)s2)CC1 [Example 224, 5-((3,5-dichloropyridin-4-yl)thio)-N-(3-(4-(dimethylamino)piperidin-1-yl)propyl)-4-nitrothiophene-2-carboxamide]
EC50: 1000 to 10000 nM

O=C(NCc1ccc(F)cc1)c1cc([N+](=O)[O-])c(Sc2c(Cl)cncc2Cl)s1 [Example 107, 5-((3,5-dichloropyridin-4-yl)thio)-N-(4-fluorobenzyl)-4-nitrothiophene-2-carboxamide]
EC50: ≤ 1000 nM

CC(C)(C)OC(=O)Nc1ccc(NC(=O)c2cc([N+](=O)[O-])c(Sc3c(Cl)cncc3Cl)s2)cc1 [Example 234, tert-butyl (4-(5-((3,5-dichloropyridin-4-yl)thio)-4-nitrothiophene-2-carboxamido)phenyl)carbamate]
EC50: ≤ 1000 nM

O=C(Nc1ccc(F)cc1F)c1cc([N+](=O)[O-])c(Sc2c(Cl)cncc2Cl)s1 [Example 143, 5-((3,5-dichloropyridin-4-yl)thio)-N-(2,4-difluorophenyl)-4-nitrothiophene-2-carboxamide]
EC50: ≤ 1000 nM

O=C(NC1CCN(C2CC2)CC1)c1cc([N+](=O)[O-])c(Sc2c(Cl)cncc2Cl)s1 [Example 231, N-(1-cyclopropylpiperidin-4-yl)-5-((3,5-dichloropyridin-4-yl)thio)-4-nitrothiophene-2-carboxamide]
EC50: 1000 to 10000 nM

CC(C)N1CCC(NC(=O)c2cc([N+](=O)[O-])c(Sc3c(Cl)cncc3Cl)s2)CC1 [Example 187, 5-((3,5-dichloropyridin-4-yl)thio)-N-(1-isopropylpiperidin-4-yl)-4-nitrothiophene-2-carboxamide]
EC50: ≤ 1000 nM

CC(=O)Nc1cccc(CNC(=O)c2cc([N+](=O)[O-])c(Sc3c(Cl)cncc3Cl)s2)c1 [Example 122, N-(3-acetamidobenzyl)-5-((3,5-dichloropyridin-4-yl)thio)-4-nitrothiophene-2-carboxamide]
EC50: ≤ 1000 nM

O=C(NCCC(=O)N1CCCC1)c1cc([N+](=O)[O-])c(Sc2c(Cl)cncc2Cl)s1 [Example 268, 5-((3,5-dichloropyridin-4-yl)thio)-4-nitro-N-(3-oxo-3-(pyrrolidin-1-yl)propyl)thiophene-2-carboxamide]
EC50: 1000 to 10000 nM

COc1ccccc1CNC(=O)c1cc([N+](=O)[O-])c(Sc2c(Cl)cncc2Cl)s1 [Example 51, 5-((3,5-dichloropyridin-4-yl)thio)-N-(2-methoxybenzyl)-4-nitrothiophene-2-carboxamide]
EC50: 1000 to 10000 nM

COC(=O)c1cc([N+](=O)[O-])c(Oc2c(Cl)cncc2Cl)s1 [Example 258, Methyl 5-((3,5-dichloropyridin-4-yl)oxy)-4-nitrothiophene-2-carboxylate]
EC50: 1000 to 10000 nM

O=C(NCCc1cccs1)c1cc([N+](=O)[O-])c(Sc2c(Cl)cncc2Cl)s1 [Example 55, 5-((3,5-dichloropyridin-4-yl)thio)-4-nitro-N-(2-(thiophen-2-yl)ethyl)thiophene-2-carboxamide]
EC50: 1000 to 10000 nM

COc1cccc(NC(=O)c2cc([N+](=O)[O-])c(Sc3c(Cl)cncc3Cl)s2)c1 [Example 156, 5-((3,5-dichloropyridin-4-yl)thio)-N-(3-methoxyphenyl)-4-nitrothiophene-2-carboxamide]
EC50: ≤ 1000 nM

O=C(NC12CC3CC(CC(O)(C3)C1)C2)c1cc([N+](=O)[O-])c(Sc2c(Cl)cncc2Cl)s1 [Example 176, 5-((3,5-dichloropyridin-4-yl)thio)-N-((1r,3s,5R,7S)-3-hydroxyadamantan-1-yl)-4-nitrothiophene-2-carboxamide]
EC50: ≤ 1000 nM

CS(=O)(=O)c1cccc(CNC(=O)c2cc([N+](=O)[O-])c(Sc3c(Cl)cncc3Cl)s2)c1 [Example 125, 5-((3,5-dichloropyridin-4-yl)thio)-N-(3-(methylsulfonyl)benzyl)-4-nitrothiophene-2-carboxamide]
EC50: ≤ 1000 nM

CS(=O)(=O)CCCNC(=O)c1cc([N+](=O)[O-])c(Sc2c(Cl)cncc2Cl)s1 [Example 245, 5-((3,5-dichloropyridin-4-yl)thio)-N-(3-(methylsulfonyl)propyl)-4-nitrothiophene-2-carboxamide]
EC50: 1000 to 10000 nM

CC(=O)c1cc([N+](=O)[O-])c(Sc2ccccc2Cl)s1 [Example 1, 1-[5-(2-Chlorophenylsulfanyl)-4-nitro-2-thienyl]ethanone]
EC50: > 10000 nM

CNC(C)c1cc([N+](=O)[O-])c(Sc2ccc(Cl)cc2Cl)s1 (centres unmarked) [Example 28, 1-[5-(2,4-dichlorophenyl)sulfanyl-4-nitro-2-thienyl]-N-methyl-ethanamine]
EC50: > 10000 nM

O=C(NCc1ccc2c(c1)OCO2)c1cc([N+](=O)[O-])c(Sc2c(Cl)cncc2Cl)s1 [Example 151, N-(benzo[d][1,3]dioxol-5-ylmethyl)-5-((3,5-dichloropyridin-4-yl)thio)-4-nitrothiophene-2-carboxamide]
EC50: ≤ 1000 nM

COC(=O)c1cc([N+](=O)[O-])c(Sc2c(Cl)cncc2Cl)s1 [Example 43, Methyl 5-[(3,5-dichloro-4-pyridyl)sulfanyl]-4-nitro-thiophene-2-carboxylate]
EC50: 1000 to 10000 nM

COC(=O)c1cc([N+](=O)[O-])c(Sc2c(F)cncc2F)s1 [Example 255, Methyl 5-((3,5-difluoropyridin-4-yl)thio)-4-nitrothiophene-2-carboxylate]
EC50: 1000 to 10000 nM

CSCCCNC(=O)c1cc([N+](=O)[O-])c(Sc2c(Cl)cncc2Cl)s1 [Example 194, 5-((3,5-dichloropyridin-4-yl)thio)-N-(3-(methylthio)propyl)-4-nitrothiophene-2-carboxamide]
EC50: ≤ 1000 nM

COc1ccc(CNC(=O)c2cc([N+](=O)[O-])c(Sc3c(Cl)cncc3Cl)s2)cc1OC [Example 98, 5-((3,5-dichloropyridin-4-yl)thio)-N-(3,4-dimethoxybenzyl)-4-nitrothiophene-2-carboxamide]
EC50: ≤ 1000 nM

CC(=O)N1CCC(NC(=O)c2cc([N+](=O)[O-])c(Sc3c(Cl)cncc3Cl)s2)CC1 [Example 232, N-(1-acetylpiperidin-4-yl)-5-((3,5-dichloropyridin-4-yl)thio)-4-nitrothiophene-2-carboxamide]
EC50: 1000 to 10000 nM

CN1CCC(NC(=O)c2cc([N+](=O)[O-])c(Sc3ccc(Cl)cc3Cl)s2)CC1 [Example 81, 5-((2,4-dichlorophenyl)thio)-N-(1-methylpiperidin-4-yl)-4-nitrothiophene-2-carboxamide]
EC50: 1000 to 10000 nM

O=C(NC1CC2CCC1C2)c1cc([N+](=O)[O-])c(Sc2c(Cl)cncc2Cl)s1 (centres unmarked) [Example 177, N-(bicyclo[2.2.1]heptan-2-yl)-5-((3,5-dichloropyridin-4-yl)thio)-4-nitrothiophene-2-carboxamide]
EC50: ≤ 1000 nM

CC(=O)c1cc([N+](=O)[O-])c(Sc2c(Cl)c[n+]([O-])cc2Cl)s1 [Example 18, 1-[5-(3,5-dichloro-1-oxido-pyridin-1-ium-4-yl)sulfanyl-4-nitro-2-thienyl]ethanone]
EC50: 1000 to 10000 nM

O=C(NCCCN1CCC(F)CC1)c1cc([N+](=O)[O-])c(Sc2c(Cl)cncc2Cl)s1 [Example 228, 5-((3,5-dichloropyridin-4-yl)thio)-N-(3-(4-fluoropiperidin-1-yl)propyl)-4-nitrothiophene-2-carboxamide]
EC50: 1000 to 10000 nM

O=C(NCCCN1CCCCC1)c1cc([N+](=O)[O-])c(Sc2ccc(Cl)cc2Cl)s1 [Example 249, 5-((2,4-dichlorophenyl)thio)-4-nitro-N-(3-(piperidin-1-yl)propyl)thiophene-2-carboxamide]
EC50: 1000 to 10000 nM

CCOC(=O)c1cc([N+](=O)[O-])c(Sc2cccc(Cl)c2Cl)s1 [Example 41, Ethyl 5-(2,3-dichlorophenylsulfanyl)-4-nitrothiophene-2-carboxylate]
EC50: > 10000 nM

O=C(NC1CCC(O)CC1)c1cc([N+](=O)[O-])c(Sc2c(Cl)cncc2Cl)s1 (centres unmarked) [Example 77, 5-((3,5-dichloropyridin-4-yl)thio)-N-(4-hydroxycyclohexyl)-4-nitrothiophene-2-carboxamide]
EC50: 1000 to 10000 nM

CN1CCN(CCCNC(=O)c2cc([N+](=O)[O-])c(Sc3c(Cl)cncc3Cl)s2)CC1 [Example 65]
EC50: 1000 to 10000 nM

O=C(Nc1cc(C(F)(F)F)n[nH]1)c1cc([N+](=O)[O-])c(Sc2c(Cl)cncc2Cl)s1 [Example 164, 5-((3,5-dichloropyridin-4-yl)thio)-4-nitro-N-(3-(trifluoromethyl)-1H-pyrazol-5-yl)thiophene-2-carboxamide]
EC50: ≤ 1000 nM

O=C(NCc1ccccc1)c1cc([N+](=O)[O-])c(Sc2c(Cl)cncc2Cl)s1 [Example 45, N-benzyl-5-[(3,5-dichloro-4-pyridyl)sulfanyl]-4-nitro-thiophene-2-carboxamide]
EC50: 1000 to 10000 nM

O=C(NCc1cccc(-c2ccccc2)c1)c1cc([N+](=O)[O-])c(Sc2c(Cl)cncc2Cl)s1 [Example 58, N-([1,1′-biphenyl]-3-ylmethyl)-5-((3,5-dichloropyridin-4-yl)thio)-4-nitrothiophene-2-carboxamide]
EC50: 1000 to 10000 nM

O=C(Nc1cc(F)ccc1F)c1cc([N+](=O)[O-])c(Sc2c(Cl)cncc2Cl)s1 [Example 159, 5-((3,5-dichloropyridin-4-yl)thio)-N-(2,5-difluorophenyl)-4-nitrothiophene-2-carboxamide]
EC50: ≤ 1000 nM

CC(O)c1ccc(NC(=O)c2cc([N+](=O)[O-])c(Sc3c(Cl)cncc3Cl)s2)cc1 (centres unmarked) [Example 131, 5-((3,5-dichloropyridin-4-yl)thio)-N-(4-(1-hydroxyethyl)phenyl)-4-nitrothiophene-2-carboxamide]
EC50: ≤ 1000 nM
